Source: patent US20080124741A1, “Canine Cholecystokinin 1 Receptor Materials And Their Use” (priority 2004, published 2008)
Where a chain is given by its changes, count along the chain named. Like-named read-outs stand apart in the source and are kept apart here. Each block holds one molecule with its values, some of them ahead of it. Square brackets hold non-standard residues; d marks the D form. Ends that are not written are not given here. sY = N[C@@H](Cc1ccc(OS(=O)(=O)O)cc1)C(=O)O

Tests used:
canine CCK1 receptor = target: T1, canine CCK1 receptor (Canis lupus familiaris, UniProt Q5D0K2); assay: competition binding of [125I]-BH-CCK-8S at cloned canine CCK1 receptor stably expressed in CHO-K cells
T1 construct: expressed in transfected cells
T1 sequence (Q5D0K2 1-428): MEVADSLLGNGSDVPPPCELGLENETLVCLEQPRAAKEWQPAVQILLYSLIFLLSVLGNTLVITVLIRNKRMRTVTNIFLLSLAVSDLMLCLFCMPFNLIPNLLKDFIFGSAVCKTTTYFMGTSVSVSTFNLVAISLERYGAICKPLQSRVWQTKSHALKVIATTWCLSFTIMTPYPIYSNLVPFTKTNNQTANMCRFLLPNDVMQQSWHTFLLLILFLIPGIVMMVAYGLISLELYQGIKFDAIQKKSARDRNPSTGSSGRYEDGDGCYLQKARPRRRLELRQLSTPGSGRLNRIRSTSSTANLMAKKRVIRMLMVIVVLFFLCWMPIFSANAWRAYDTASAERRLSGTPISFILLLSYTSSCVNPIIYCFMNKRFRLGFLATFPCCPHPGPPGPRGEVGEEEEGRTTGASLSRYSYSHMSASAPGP

human CCK1 receptor = target: T2, human CCK1 receptor (Homo sapiens, UniProt P32238); assay: competition binding of [125I]-BH-CCK-8S at cloned human CCK1 receptor
T2 construct: expressed in transfected cells
T2 sequence (P32238 1-428): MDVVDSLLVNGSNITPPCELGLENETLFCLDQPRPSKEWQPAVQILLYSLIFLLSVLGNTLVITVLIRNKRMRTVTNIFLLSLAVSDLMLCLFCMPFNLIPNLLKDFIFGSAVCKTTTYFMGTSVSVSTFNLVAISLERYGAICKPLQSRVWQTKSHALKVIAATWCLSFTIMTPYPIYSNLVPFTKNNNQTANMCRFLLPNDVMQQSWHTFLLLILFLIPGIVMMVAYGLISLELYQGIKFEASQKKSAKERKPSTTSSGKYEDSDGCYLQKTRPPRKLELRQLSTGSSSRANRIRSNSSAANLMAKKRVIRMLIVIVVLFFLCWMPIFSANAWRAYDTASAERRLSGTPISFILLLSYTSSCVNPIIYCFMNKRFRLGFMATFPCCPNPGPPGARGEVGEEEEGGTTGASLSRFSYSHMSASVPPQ

canine CCK2 receptor = target: T3, canine CCK2 receptor (Canis lupus familiaris, UniProt P30552); assay: competition binding of [125I]-BH-CCK-8S at canine CCK2 receptor; details: for fold higher affinity at the canine CCK2 receptor compared to the canine CCK1 receptor: canine CCK2 over canine CCK1
T3 sequence (P30552 1-453): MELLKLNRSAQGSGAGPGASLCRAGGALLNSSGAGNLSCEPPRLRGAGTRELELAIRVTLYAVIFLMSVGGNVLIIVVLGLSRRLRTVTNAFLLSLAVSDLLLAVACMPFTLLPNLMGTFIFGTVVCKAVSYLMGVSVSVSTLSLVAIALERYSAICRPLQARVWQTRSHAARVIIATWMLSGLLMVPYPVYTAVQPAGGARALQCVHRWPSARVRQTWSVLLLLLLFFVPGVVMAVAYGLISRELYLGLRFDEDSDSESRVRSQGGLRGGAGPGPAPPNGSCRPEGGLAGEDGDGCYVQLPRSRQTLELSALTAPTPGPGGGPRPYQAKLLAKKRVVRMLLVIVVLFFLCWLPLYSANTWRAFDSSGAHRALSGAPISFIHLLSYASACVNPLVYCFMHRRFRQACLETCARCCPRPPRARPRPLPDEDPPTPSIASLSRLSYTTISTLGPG

Canine CCK1: Wild-type = target: T4, Canine CCK1: Wild-type (Canis lupus familiaris, UniProt Q5D0K2); assay: competition binding at wild-type canine CCK1 receptor transiently transfected in HEK cells; details: n = 3, ± s.e. mean; for Ki: read-out: pKI (affinity value, -log equilibrium dissociation constant) (converted)
T4 construct: The ORF encodes a 428 amino-acid protein; expressed in transfected cells; host or cells: HEK-293 cells, transient
T4 sequence (Q5D0K2 1-428): T1 sequence (Q5D0K2 1-428)

Canine CCK1: Variant #1 = target: T5, Canine CCK1: Variant #1 (Canis lupus familiaris, UniProt Q5D0K2, G258S/L413V/V400A); assay: competition binding at variant #1 canine CCK1 receptor transiently transfected in HEK cells; details: Canine CCK1 variant #1, transiently transfected in HEK cells, n = 3, ± s.e. mean; for Ki: read-out: pKI (affinity value, -log equilibrium dissociation constant) (converted)
T5 construct: plasmid DNAs containing the respective variant canine CCK1 receptor cDNAs and the wild type cDNA were transiently transfected; expressed in transfected cells; host or cells: HEK-293 cells, transient
T5 sequence (Q5D0K2 1-428 G258S/V400A/L413V): T1 sequence (Q5D0K2 1-428) with G258S, V400A, L413V

[1] = target: T6, guinea-pig pancreatic CCK1 receptors (Cavia porcellus, UniProt Q63931); details: guinea-pig pancreatic CCK1 receptors (Takinami et al., 1997); cited from earlier work
T6 construct: host or cells: guinea-pig pancreas
T6 sequence (Q63931 1-430): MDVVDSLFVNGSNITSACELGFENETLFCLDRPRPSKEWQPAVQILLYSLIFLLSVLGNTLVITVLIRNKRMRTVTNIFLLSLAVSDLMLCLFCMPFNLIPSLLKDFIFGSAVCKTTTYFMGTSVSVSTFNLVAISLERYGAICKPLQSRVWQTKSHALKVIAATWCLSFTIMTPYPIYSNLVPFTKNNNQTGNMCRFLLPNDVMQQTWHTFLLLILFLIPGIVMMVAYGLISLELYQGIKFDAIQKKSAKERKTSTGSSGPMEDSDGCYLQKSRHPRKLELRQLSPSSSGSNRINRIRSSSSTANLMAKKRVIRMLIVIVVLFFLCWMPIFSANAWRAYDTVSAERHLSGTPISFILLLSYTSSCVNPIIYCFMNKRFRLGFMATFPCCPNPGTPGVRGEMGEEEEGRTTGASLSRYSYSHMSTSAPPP

[2] = test system: putative CCK1 receptor binding sites labeled with [3H]-L-364,718; details: canine intestine (Mao et al., 1995); cited from earlier work
[3] = target: T7, wild-type canine CCK1 receptor (canine, UniProt Q5D0K2 1-428); assay: saturation radioligand binding, membranes of stably transfected CHO cells, first phase of the isotherm
T7 construct: Full-length receptor, stably expressed in CHO-K cells or transiently in HEK-293 cells; It was assayed as membrane preparations of those cells; also called canine cholecystokinin 1 receptor; control wild-type canine CCK1R protein
T7 sequence: T1 sequence (Q5D0K2 1-428)

[4] = target: T8, canine CCK1 receptor variant #2 (canine, UniProt Q5D0K2 1-428); assay: radioligand binding (20 pM [125I]-BH-CCK-8S) against increasing membrane protein, transiently transfected HEK cells
T8 construct: Six amino-acid differences from wild type; Transiently expressed in HEK-293 cells and assayed as membrane preparations; also called canine CCK1 variant #2 receptor
T8 chain: T1 sequence (Q5D0K2 1-428) with S12G, L27P, L99P, G258S, V400A, L413V

[5] = Canine CCK1, CHO-K cells, [125I]-BH-CCK-8S radiolabel, n = 3, ± s.e. mean
[6] = Canine CCK1, CHO-K cells, [125I]-BH-CCK-8S radiolabel, n = 3, ± s.e. mean, read-out: pKI (affinity value, -log equilibrium dissociation constant) (converted)
[7] = Human CCK1, [125I]-BH-CCK-8S radiolabel, n = 3, ± s.e. mean
[8] = Human CCK1, [125I]-BH-CCK-8S radiolabel, n = 3, ± s.e. mean, read-out: pKI (affinity value, -log equilibrium dissociation constant) (converted)
[9] = Canine CCK2, [125I]-BH-CCK-8S radiolabel, n = 3, ± s.e. mean
[10] = Canine CCK2, [125I]-BH-CCK-8S radiolabel, n = 3, ± s.e. mean, read-out: pKI (affinity value, -log equilibrium dissociation constant) (converted)

nH (Hill slope) (canine CCK1 receptor; [5]): 0.88 ± 0.08
Ki (canine CCK1 receptor; [6]): 12.3 nM
nH (Hill slope) (human CCK1 receptor; [7]): 0.95 ± 0.07
Ki (human CCK1 receptor; [8]): 13.5 nM
nH (Hill slope) (canine CCK2 receptor; [9]): 0.91 ± 0.10
Ki (canine CCK2 receptor; [10]): 1.05 nM
fold higher affinity at the canine CCK2 receptor compared to the canine CCK1 receptor (canine CCK2 receptor): ~12 fold
nH (Hill slope) (Canine CCK1: Wild-type): 0.60 ± 0.22
Ki (Canine CCK1: Wild-type): 12 nM
nH (Hill slope) (Canine CCK1: Variant #1): 1.14 ± 0.37
Ki (Canine CCK1: Variant #1): 15.1 nM
Molecule: CNc1cccc(NC(=O)N[C@@H]2N=C(c3ccccn3)c3ccccc3N(CC(=O)C(C)(C)C)C2=O)c1 [YF476]
reported pK1 value [1]: ~6.5

nH (Hill slope) (canine CCK2 receptor; [9]): 0.87 ± 0.06
Ki (canine CCK2 receptor; [10]): 24 nM
Molecule: CN1C(=O)[C@@H](NC(=O)c2cc3ccccc3[nH]2)N=C(c2ccccc2)c2ccccc21 [L-364,718]

More lines, now with the values behind:

Molecule: Cc1cccc(NC(=O)N[C@@H]2N=C(c3ccccc3)c3ccccc3N(C)C2=O)c1 [L-365,260, 3R(+)—N-(2,3-dihydro-1-methyl-2-oxo-5-phenyl-1H-1,4-benzodiazepin-3-yl)-N′-(3-methylphenyl)urea]
Ki (canine CCK1 receptor): 245 nM
nH (Hill slope) (canine CCK1 receptor; [5]): 1.17 ± 0.09
Ki (human CCK1 receptor): 245 nM
nH (Hill slope) (human CCK1 receptor; [7]): 1.32 ± 0.14
Ki (canine CCK2 receptor): 93.3 nM
nH (Hill slope) (canine CCK2 receptor; [9]): 0.95 ± 0.08
fold higher affinity at the canine CCK2 receptor compared to the canine CCK1 receptor (canine CCK2 receptor): ~2.6 fold
nH (Hill slope) (Canine CCK1: Wild-type): 0.96 ± 0.32
Ki (Canine CCK1: Wild-type): 219 nM
nH (Hill slope) (Canine CCK1: Variant #1): 1.08 ± 0.33
Ki (Canine CCK1: Variant #1): 155 nM

Molecule: Cc1cccc(NC(=O)N[C@@H]2N=C(c3ccccc3)c3ccccc3N(CC(=O)c3ccccc3C)C2=O)c1 [YM022, 1-[(R)-2,3-dihydro-1-(2-methylphenacyl)-2-oxo-5-phenyl-1H-1,4-benzodiazepin-3-yl]-3-(3-methylphenyl)urea]
nH (Hill slope) (canine CCK1 receptor; [5]): 1.09 ± 0.13
Ki (canine CCK1 receptor; [6]): 5.25 nM
nH (Hill slope) (human CCK1 receptor; [7]): 1.15 ± 0.14
Ki (human CCK1 receptor; [8]): 7.76 nM
Ki (canine CCK2 receptor): 0.195 nM
nH (Hill slope) (canine CCK2 receptor; [9]): 0.92 ± 0.10
fold higher affinity at the canine CCK2 receptor compared to the canine CCK1 receptor (canine CCK2 receptor): 27 fold
nH (Hill slope) (Canine CCK1: Wild-type): 1.17 ± 0.30
Ki (Canine CCK1: Wild-type): 11 nM
nH (Hill slope) (Canine CCK1: Variant #1): 1.39 ± 0.39
Ki (Canine CCK1: Variant #1): 8.32 nM
inhibitory effect at [3H]-L-364,718 binding sites [2]: no inhibitory effect

Molecule: CCCCCN(CCCOC)C(=O)[C@@H](CCC(=O)O)NC(=O)c1ccc(Cl)c(Cl)c1 [dexloxiglumide, (R)-4-(3,4-Dichloro-benzoylamino)-4-[(3-methoxy-propyl)-pentyl-carbamoyl]-butyric acid]
nH (Hill slope) (canine CCK1 receptor; [5]): 0.83 ± 0.13
Ki (canine CCK1 receptor; [6]): 29.5 nM
fold higher affinity at the canine CCK1 receptor (compared to canine CCK2) (canine CCK1 receptor; canine CCK1 over canine CCK2): 93 fold
nH (Hill slope) (human CCK1 receptor; [7]): 0.91 ± 0.18
Ki (human CCK1 receptor; [8]): 29.5 nM
nH (Hill slope) (canine CCK2 receptor; [9]): 0.71 ± 0.09
Ki (canine CCK2 receptor; [10]): 2750 nM
nH (Hill slope) (Canine CCK1: Wild-type): 1.33 ± 0.43
Ki (Canine CCK1: Wild-type): 16.6 nM
nH (Hill slope) (Canine CCK1: Variant #1): 0.90 ± 0.17
Ki (Canine CCK1: Variant #1): 16.6 nM

B1: [^125I]-BH-CCK-8S (peptide, UniProt P06307 96-103, looked up)
peptide: {BH(125I)}-D[sY]MGWMDF
modifications: not fully specified (C-terminus); ends and bridges not checked; also: sulfated, site not given here, 125I Bolton-Hunter conjugate, site not given here
notes: Radioligand; also called Bolton-Hunter conjugated sulfated CCK-8
pKD [3]: 10.5 pKD (negative log of KD)
binding result [4]: no binding (tested: 2500 µg/ml protein)
